Reference: PubChem BioAssay (NCI)
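GI50 is the concentration that inhibits growth by half. TGI: concentration producing complete growth inhibition.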

Assays:
Assay in all cases: inhibition of tumour cell growth, NCI panel, 384-well format
RXF 393 renal = test system: RXF 393 renal
HCC-2998 colon = test system: HCC-2998 colon
SK-OV-3 ovarian = test system: SK-OV-3 ovarian
MALME-3M melanoma = test system: MALME-3M melanoma
OVCAR-4 ovarian = test system: OVCAR-4 ovarian
NCI-H226 lung = test system: NCI-H226 lung
EKVX NSCLC = test system: EKVX NSCLC
HS 578T breast = test system: HS 578T breast
CAKI-1 renal = test system: CAKI-1 renal
NCI-H460 NSCLC = test system: NCI-H460 NSCLC
SW-620 colon = test system: SW-620 colon
MDA-MB-231 breast = test system: MDA-MB-231 breast
HT29 colon = test system: HT29 colon
HOP-92 NSCLC = test system: HOP-92 NSCLC
M14 melanoma = test system: M14 melanoma
HCT-116 colon = test system: HCT-116 colon
OVCAR-8 ovarian = test system: OVCAR-8 ovarian
NCI/ADR-RES ovarian = test system: NCI/ADR-RES ovarian
SF-268 CNS = test system: SF-268 CNS
SF-539 CNS = test system: SF-539 CNS
SNB-19 CNS = test system: SNB-19 CNS
KM12 colon = test system: KM12 colon
DU-145 prostate = test system: DU-145 prostate
A498 renal = test system: A498 renal
NCI-H522 lung = test system: NCI-H522 lung
MDA-MB-468 breast = test system: MDA-MB-468 breast
OVCAR-3 ovarian = test system: OVCAR-3 ovarian
COLO 205 colon = test system: COLO 205 colon
SNB-75 CNS = test system: SNB-75 CNS
NCI-H23 lung = test system: NCI-H23 lung
HCT-15 colon = test system: HCT-15 colon
LOX IMVI melanoma = test system: LOX IMVI melanoma
K-562 leukemia = test system: K-562 leukemia
SF-295 CNS = test system: SF-295 CNS
T-47D breast = test system: T-47D breast
IGROV1 ovarian = test system: IGROV1 ovarian
CCRF-CEM leukemia = test system: CCRF-CEM leukemia
786-0 renal = test system: 786-0 renal
A549 NSCLC = test system: A549 NSCLC
SK-MEL-5 melanoma = test system: SK-MEL-5 melanoma
TK-10 renal = test system: TK-10 renal
PC-3 prostate = test system: PC-3 prostate
SK-MEL-28 melanoma = test system: SK-MEL-28 melanoma
HOP-62 NSCLC = test system: HOP-62 NSCLC
NCI-H322M lung = test system: NCI-H322M lung
MDA-MB-435 melanoma = test system: MDA-MB-435 melanoma
UO-31 renal = test system: UO-31 renal
MOLT-4 leukemia = test system: MOLT-4 leukemia
MCF7 breast = test system: MCF7 breast
HL-60(TB) leukemia = test system: HL-60(TB) leukemia
BT-549 breast = test system: BT-549 breast
U251 glioblastoma = test system: U251 glioblastoma
OVCAR-5 ovarian = test system: OVCAR-5 ovarian
SK-MEL-2 melanoma = test system: SK-MEL-2 melanoma
RPMI-8226 leukemia = test system: RPMI-8226 leukemia

SMILES: COC[C@H]1Cn2cc(-c3nc(Nc4ccnn4C)ncc3C)nc2C(=O)N1Cc1ccc(F)c(F)c1
- GI50 (RXF 393 renal): 23.6 µM
- TGI (RXF 393 renal): > 100 µM
- GI50 (HCC-2998 colon): 0.0316 µM
- TGI (HCC-2998 colon): 0.219 µM
- GI50 (SK-OV-3 ovarian): 18.2 µM
- TGI (SK-OV-3 ovarian): > 100 µM
- GI50 (MALME-3M melanoma): < 0.01 µM
- TGI (MALME-3M melanoma): 0.0237 µM
- GI50 (OVCAR-4 ovarian): 61.9 µM
- TGI (OVCAR-4 ovarian): > 100 µM
- GI50 (NCI-H226 lung): 0.612 µM
- TGI (NCI-H226 lung): > 100 µM
- GI50 (EKVX NSCLC): 11 µM
- TGI (EKVX NSCLC): > 100 µM
- GI50 (HS 578T breast): 15.8 µM
- TGI (HS 578T breast): > 100 µM
- GI50 (CAKI-1 renal): 0.509 µM
- TGI (CAKI-1 renal): > 100 µM
- GI50 (NCI-H460 NSCLC): 2.03 µM
- TGI (NCI-H460 NSCLC): > 100 µM
- GI50 (SW-620 colon): 0.0875 µM
- TGI (SW-620 colon): 58.6 µM
- GI50 (MDA-MB-231 breast): 0.266 µM
- TGI (MDA-MB-231 breast): > 100 µM
- GI50 (HT29 colon): 0.0947 µM
- TGI (HT29 colon): > 100 µM
- GI50 (HOP-92 NSCLC): 0.389 µM
- TGI (HOP-92 NSCLC): 11.6 µM
- GI50 (M14 melanoma): 0.0106 µM
- TGI (M14 melanoma): 0.181 µM
- GI50 (HCT-116 colon): 0.0577 µM
- TGI (HCT-116 colon): 32.3 µM
- GI50 (OVCAR-8 ovarian): 71.6 µM
- TGI (OVCAR-8 ovarian): > 100 µM
- GI50 (NCI/ADR-RES ovarian): 93.6 µM
- TGI (NCI/ADR-RES ovarian): > 100 µM
- GI50 (SF-268 CNS): 95.9 µM
- TGI (SF-268 CNS): > 100 µM
- GI50 (SF-539 CNS): 18.4 µM
- TGI (SF-539 CNS): > 100 µM
- GI50 (SNB-19 CNS): 53.2 µM
- TGI (SNB-19 CNS): > 100 µM
- GI50 (KM12 colon): 0.255 µM
- TGI (KM12 colon): > 100 µM
- GI50 (DU-145 prostate): 10.4 µM
- TGI (DU-145 prostate): > 100 µM
- GI50 (A498 renal): 1.3 µM
- TGI (A498 renal): > 100 µM
- GI50 (NCI-H522 lung): 1.09 µM
- TGI (NCI-H522 lung): > 100 µM
- GI50 (MDA-MB-468 breast): 14.2 µM
- TGI (MDA-MB-468 breast): 52.2 µM
- GI50 (OVCAR-3 ovarian): 43.5 µM
- TGI (OVCAR-3 ovarian): > 100 µM
- GI50 (COLO 205 colon): < 0.01 µM
- TGI (COLO 205 colon): 0.36 µM
- GI50 (SNB-75 CNS): 24.3 µM
- TGI (SNB-75 CNS): > 100 µM
- GI50 (NCI-H23 lung): 0.0369 µM
- TGI (NCI-H23 lung): 2.11 µM
- GI50 (HCT-15 colon): 24.8 µM
- TGI (HCT-15 colon): > 100 µM
- GI50 (LOX IMVI melanoma): 0.0393 µM
- TGI (LOX IMVI melanoma): 0.31 µM
- GI50 (K-562 leukemia): 1.03 µM
- TGI (K-562 leukemia): > 100 µM
- GI50 (SF-295 CNS): > 100 µM
- TGI (SF-295 CNS): > 100 µM
- GI50 (T-47D breast): 53.4 µM
- TGI (T-47D breast): > 100 µM
- GI50 (IGROV1 ovarian): 0.314 µM
- TGI (IGROV1 ovarian): > 100 µM
- GI50 (CCRF-CEM leukemia): 17.6 µM
- TGI (CCRF-CEM leukemia): 37.9 µM
- GI50 ([…]-0 renal): 24.6 µM
- TGI (786-0 renal): > 100 µM
- GI50 (A549 NSCLC): 0.373 µM
- TGI (A549 NSCLC): > 100 µM
- GI50 (SK-MEL-5 melanoma): 0.064 µM
- TGI (SK-MEL-5 melanoma): 35.7 µM
- GI50 (TK-10 renal): 0.79 µM
- TGI (TK-10 renal): 76.7 µM
- GI50 (PC-3 prostate): 38.4 µM
- TGI (PC-3 prostate): > 100 µM
- GI50 (SK-MEL-28 melanoma): < 0.01 µM
- TGI (SK-MEL-28 melanoma): 0.108 µM
- GI50 (HOP-62 NSCLC): 2.02 µM
- TGI (HOP-62 NSCLC): > 100 µM
- GI50 (NCI-H322M lung): 0.145 µM
- TGI (NCI-H322M lung): > 100 µM
- GI50 (MDA-MB-435 melanoma): 0.0355 µM
- TGI (MDA-MB-435 melanoma): > 100 µM
- GI50 (UO-31 renal): 2.73 µM
- TGI (UO-31 renal): > 100 µM
- GI50 (MOLT-4 leukemia): 16.9 µM
- TGI (MOLT-4 leukemia): 46.5 µM
- GI50 (MCF7 breast): 19.6 µM
- TGI (MCF7 breast): > 100 µM
- GI50 (HL-60(TB) leukemia): 0.0154 µM
- TGI (HL-60(TB) leukemia): 1.55 µM
- GI50 (BT-549 breast): 18.6 µM
- TGI (BT-549 breast): > 100 µM
- GI50 (U251 glioblastoma): 2.25 µM
- TGI (U251 glioblastoma): > 100 µM
- GI50 (OVCAR-5 ovarian): 0.217 µM
- TGI (OVCAR-5 ovarian): > 100 µM
- GI50 (SK-MEL-2 melanoma): 0.0366 µM
- TGI (SK-MEL-2 melanoma): 0.196 µM
- GI50 (RPMI-8226 leukemia): 0.771 µM
- TGI (RPMI-8226 leukemia): 2.6 µM
